Reference: PMC4604124, “In Vitro Characterization of the Pharmacological Properties of the Anti-Cancer Chelator, Bp4eT, and Its Phase I Metabolites” (PLoS ONE, 2015)
Where “and” joins values, the source holds several entries; their conditions need not be identical. Equal entries are not always repeated. Where two headings read alike, the source gives them in different places.

Columns and labels:
[1] = system: HL-60 human promyelocytic leukemia cells; assay: MTT cytotoxicity assay, HL-60 cells; format: cell-based; details: for IC50: MTT, read-out: IC50
Protocol: (§1) For cytotoxicity experiments, cancer cells were seeded at a density of 5,000 (MCF-7), 10,000 (HL-60) or 2,000 cells/well (HCT116 and A549) in 96-well plates (TPP) for 24 h/37°C prior to the addition of examined agents. The non-cancerous cells, 3T3 and H9c2 cells, were cultured for 24 h/37°C in 96-well plates at a density of 10,000 cells/well, the medium was then changed to serum- and pyruvate-free DMEM (Sigma-Aldrich) and incubated with the cells for another 24 h/37°C. The cytotoxic effects of Bp4eT and its metabolites were studied at different concentrations after a 72 h/37°C incubation. In order to aid the dissolution of the lipophilic ligands, 0.1% dimethyl sulfoxide (v/v) (DMSO; Sigma-Aldrich) was present in the culture medium of all groups. At this concentration, DMSO had no effect on cellular proliferation or viability.
(§2) The viability of cells were determined using an MTT assay (Sigma-Aldrich) according to previously established methods. The optical density of soluble MTT was measured at λ = 570 nm, subtracting the λ = 690 nm background using a Tecan Infinite 200M plate reader (Tecan Group, Männedorf, Switzerland). The viability or proliferation of experimental groups was expressed as a percentage of the untreated controls (100%).
(§3) SigmaStat for Windows 3.5 (Systat Software, San Jose, CA, USA) statistical software package was utilized to analyze results. The data are expressed as the mean ± SD of a given number of experiments. Statistical significance was determined using a one-way ANOVA with a Bonferroni post-hoc test or Student’s t-test. The results were considered to be statistically significant when p < 0.05. The IC50 values were calculated using CalcuSyn 2.0 software (Biosoft, Cambridge, UK). Cell cycle analysis was evaluated using MultiCycle AV Software (Phoenix Flow Systems, San Diego, CA, USA).

caspase 8 = assay: Caspase activity, luminescent kit, caspase 8; format: cell-based, human; details: for kaspáza 8, raw signal / kaspáza 8, signal / viabilita: individual experiments by date; for kaspáza 8, raw signal, průměry / kaspáza 8, % kontroly / kaspáza 8, signal / viabilita, průměry: mean; for kaspáza 8, % kontroly / kaspáza 8, signal / viabilita / kaspáza 8, signal / viabilita, průměry: normalised to viability
Protocol: To assess the effect of the compounds on caspase activity, MCF-7 cells were incubated with 100 nM Bp4eT or its metabolites for 3, 24 or 72 h/37°C in 96-well plates, as described above. The cells were then lysed by adding 100 μL of cold lysis buffer (100 mM HEPES, 10 mM CHAPS, 10 mM D-L-dithiothreitol, pH 7.4) to 100 μL of medium in each well. Lysates were immediately frozen at -80°C. Thawed lysates were used to assess caspase activity using luminescent kits for caspases 3/7, 8 and 9 (Promega, Madison, WI, USA). The luminescence was measured using the Tecan Infinite 200M plate reader. Caspase activity in the experimental groups was corrected according to the cellular viability of each group and expressed as a percentage of activity of the untreated control (100%).

[2] = system: HCT116 human colorectal carcinoma cells; assay: MTT cytotoxicity assay, HCT116 cells; format: cell-based; details: for IC50: MTT
Protocol: as §1, §2, §3

MCF-7 cells = assay: Cell cycle analysis by flow cytometry (propidium iodide); format: cell-based, human; details: 0.1 μM, 72 h, control 33%
Protocol: To examine the effect of the agents on the cell cycle, MCF-7 cells were seeded in 60 mm Petri dishes at a density of 240,000 cells/dish and incubated with Bp4eT or its metabolites for 72 h/37°C. The cells were then harvested, fixed by ethanol and stained by propidium iodide (Molecular Probes, Eugene, OR, USA) for 30 min/37°C, as described previously. Cells were analyzed using Accuri C6 flow cytometer (Becton Dickinson and Company, San Jose, CA USA). Propidium iodide was excited at λex = 488 nm and fluorescence analyzed at λem = 585 nm (FL-2) with a total of 10,000 events collected per analysis.
as §3

**Q.** What does the source list for `CCNC(=O)NN=C(c1ccccc1)c1ccccn1` [E-Bp4eS, 2-benzoylpyridine 4-ethylsemicarbazone]?
**A.** Therapeutic index, IC50 non-cancerous cells / IC50 neoplastic cells ([1]; 3T3/HL-60): >6.6; Therapeutic index, IC50 non-cancerous cells / IC50 neoplastic cells ([1]; H9c2/HL-60): 5.9; IC50 ([1]; HL-60, 72 h/37°C, mean ± SD, n ≥ 4): 151 ± 9.1 µM; MTT, relative to control (0 = 100) ([1]; HL-60, 10 000 b/j, 3 μM, průměr (mean), sheet E-Bp4eS): 97.96; MTT, relative to control (0 = 100) ([1]; HL-60, 10 000 b/j, 3 μM, single experiment (date), sheet E-Bp4eS): 100.761 and 104.358 and 95.5768 and 91.1569; MTT, relative to control (0 = 100) ([1]; HL-60, 10 000 b/j, 10 μM, průměr (mean), sheet E-Bp4eS): 99.97; MTT, relative to control (0 = 100) ([1]; HL-60, 10 000 b/j, 10 μM, single experiment (date), sheet E-Bp4eS): 101.567 and 98.1615 and 96.1949 and 103.964; MTT, relative to control (0 = 100) ([1]; HL-60, 10 000 b/j, 30 μM, průměr (mean), sheet E-Bp4eS): 95.62; MTT, relative to control (0 = 100) ([1]; HL-60, 10 000 b/j, 30 μM, single experiment (date), sheet E-Bp4eS): 99.0132 and 96.6154 and 90.9257 and 95.914; MTT, relative to control (0 = 100) ([1]; HL-60, 10 000 b/j, 100 μM, průměr (mean), sheet E-Bp4eS): 79.54; MTT, relative to control (0 = 100) ([1]; HL-60, 10 000 b/j, 100 μM, single experiment (date), sheet E-Bp4eS): 81.2266 and 75.7782 and 76.5508 and 84.6199; MTT, relative to control (0 = 100) ([1]; HL-60, 10 000 b/j, 120 μM, průměr (mean), sheet E-Bp4eS): 74.92; MTT, relative to control (0 = 100) ([1]; HL-60, 10 000 b/j, 120 μM, single experiment (date), sheet E-Bp4eS): 75.3051 and 80.9667 and 70.8568 and 72.5675; MTT, relative to control (0 = 100) ([1]; HL-60, 10 000 b/j, 140 μM, průměr (mean), sheet E-Bp4eS): 62.34; MTT, relative to control (0 = 100) ([1]; HL-60, 10 000 b/j, 140 μM, single experiment (date), sheet E-Bp4eS): 62.4842 and 69.381 and 45.4725 and 72.037; MTT, relative to control (0 = 100) ([1]; HL-60, 10 000 b/j, 150 μM, průměr (mean), sheet E-Bp4eS): 38.39; MTT, relative to control (0 = 100) ([1]; HL-60, 10 000 b/j, 300 μM, průměr (mean), sheet E-Bp4eS): 3.81; IC50 ([1]; HL-60, 10 000 b/j, single experiment (date), sheet E-Bp4eS): 159 µM and 144 µM and 141 µM; IC50 ([1]; Homo sapiens, HL-60, HL-60, 10 000 b/j, průměr (mean), sheet E-Bp4eS): 150 µM; IC50 ([1]; Homo sapiens, HL-60, HL-60, 10 000 b/j, single experiment (date), sheet E-Bp4eS): 158 µM; kaspáza 8, raw signal (caspase 8; 3 hodiny): 1819 and 1041 and 1191.5 and 952.5; kaspáza 8, raw signal, průměry (caspase 8; 3 hodiny): 1251; kaspáza 8, % kontroly (caspase 8; 3 hodiny): 93.96 % kontroly; kaspáza 8, signal / viabilita (caspase 8; 3 hodiny): 18.5259 and 10.6022 and 12.135 and 9.701; kaspáza 8, signal / viabilita, průměry (caspase 8; 3 hodiny): 12.741; kaspáza 8, raw signal (caspase 8; 24 hodin): 1530 and 1548 and 1983.5 and 1503; kaspáza 8, raw signal, průměry (caspase 8; 24 hodin): 1641.12; kaspáza 8, % kontroly (caspase 8; 24 hodin): 104.70 % kontroly; kaspáza 8, signal / viabilita (caspase 8; 24 hodin): 15.3819 and 15.5629 and 19.9412 and 15.1105; kaspáza 8, signal / viabilita, průměry (caspase 8; 24 hodin): 16.4991; kaspáza 8, raw signal (caspase 8; 72 hodin): 6786.5 and 6488.5 and 6545 and 6983; kaspáza 8, raw signal, průměry (caspase 8; 72 hodin): 6700.75; kaspáza 8, % kontroly (caspase 8; 72 hodin): 98.51 % kontroly; kaspáza 8, signal / viabilita (caspase 8; 72 hodin): 69.3845 and 66.3378 and 66.9154 and 71.3935; kaspáza 8, signal / viabilita, průměry (caspase 8; 72 hodin): 68.5078; Therapeutic index, IC50 non-cancerous cells / IC50 neoplastic cells ([2]; 3T3/HCT116): >10.5; Therapeutic index, IC50 non-cancerous cells / IC50 neoplastic cells ([2]; H9c2/HCT116): 9.3; IC50 ([2]; HCT116, 72 h/37°C, mean ± SD, n ≥ 4): 95.4 ± 10.4 µM; MTT, relative to control (0 = 100) ([2]; HCT116, 2 000 b/j, 1 μM, průměr (mean), sheet E-Bp4eS): 93.86; MTT, relative to control (0 = 100) ([2]; HCT116, 2 000 b/j, 1 μM, single experiment (date), sheet E-Bp4eS): 90.5387 and 95.2075 and 90.3432 and 99.3608; MTT, relative to control (0 = 100) ([2]; HCT116, 2 000 b/j, 3 μM, průměr (mean), sheet E-Bp4eS): 91.05; MTT, relative to control (0 = 100) ([2]; HCT116, 2 000 b/j, 3 μM, single experiment (date), sheet E-Bp4eS): 88.1499 and 86.4536 and 88.7606 and 100.823; MTT, relative to control (0 = 100) ([2]; HCT116, 2 000 b/j, 10 μM, průměr (mean), sheet E-Bp4eS): 89.35; MTT, relative to control (0 = 100) ([2]; HCT116, 2 000 b/j, 10 μM, single experiment (date), sheet E-Bp4eS): 79.5919 and 93.1715 and 88.2723 and 96.3507; MTT, relative to control (0 = 100) ([2]; HCT116, 2 000 b/j, 30 μM, průměr (mean), sheet E-Bp4eS): 86.47; MTT, relative to control (0 = 100) ([2]; HCT116, 2 000 b/j, 30 μM, single experiment (date), sheet E-Bp4eS): 82.3738 and 90.947 and 82.3476 and 90.2168; MTT, relative to control (0 = 100) ([2]; HCT116, 2 000 b/j, 100 μM, průměr (mean), sheet E-Bp4eS): 59.19; MTT, relative to control (0 = 100) ([2]; HCT116, 2 000 b/j, 100 μM, single experiment (date), sheet E-Bp4eS): 61.842 and 75.8026 and 45.1438 and 53.9757; MTT, relative to control (0 = 100) ([2]; HCT116, 2 000 b/j, 300 μM, průměr (mean), sheet E-Bp4eS): 9.27; MTT, relative to control (0 = 100) ([2]; HCT116, 2 000 b/j, 1000 μM, průměr (mean), sheet E-Bp4eS): 7.18; MTT, relative to control (0 = 100) ([2]; HCT116, 2 000 b/j, 1000 μM, single experiment (date), sheet E-Bp4eS): 7.957 and 7.9705 and 6.656 and 6.131; IC50 ([2]; HCT116, 2 000 b/j, single experiment (date), sheet E-Bp4eS): 108 µM and 85.2 µM and 99.1 µM; IC50 ([2]; Homo sapiens, HCT-116, HCT116, 2 000 b/j, průměr (mean), sheet E-Bp4eS): 95.4 µM; IC50 ([2]; Homo sapiens, HCT-116, HCT116, 2 000 b/j, single experiment (date), sheet E-Bp4eS): 89.2 µM; Percentage of cells in the G2/M phase (MCF-7 cells): slight, but significant (p < 0.01–0.05) decrease
